From ChEMBL document CHEMBL1240518, “Replacement of the Lys linker with an Arg linker resulting in improved melanoma uptake and reduced renal uptake of Tc-99m-labeled Arg-Gly-Asp-conjugated alpha-melanocyte stimulating hormone hybrid peptide” (Bioorg Med Chem, 2010)
Residues, ends and D or L forms follow the SMILES beside them.

Assay: Cytotoxicity against mouse B16-F1 cells assessed as reduction of cell survival after 3 hrs by clonogenic assay relative to control

SMILES: N=C(N)NCCC[C@@H]1NC(=O)CNC(=O)[C@H](CC(=O)O)NC(=O)[C@H](Cc2ccc(O)cc2)NC(=O)[C@H](CC(=O)O)NC1=O (cyclo(DGRDY))
- Activity: 7%
